Test results from article PMC10388327, “Dual Piperidine-Based Histamine H3 and Sigma-1 Receptor Ligands in the Treatment of Nociceptive and Neuropathic Pain” (Journal of Medicinal Chemistry, 2023).
Where a name gives a salt, the structure may show the parent alone.

Tests used:
mice [1] = assay: oxaliplatin-induced neuropathy, von Frey test; format: in vivo; details: for pain threshold after single administration, early phase: 3 h after OXPT; for pain threshold after single administration, late phase: 7 days after OXPT
Procedure: The neuropathy manifests as a decrease in the pain threshold and can be observed in hours or in days after oxaliplatin administration, which is called the early or late phase of neuropathic pain, respectively. We tested the influence of compound 12 on tactile allodynia using the von Frey method 3 h and 7 days after the induction of neuropathy.[12]
Neuropathy was induced by the administration of a single dose (10 mg/kg) of oxaliplatin (OXPT) dissolved in a 5% glucose solution (Polfa Kutno, Poland). To assess the sensitivity to mechanical stimuli, the von Frey test was carried out using the electronic von Frey unit (Bioseb, France). The apparatus was supplied with a single flexible filament, which was used to apply increasing force (from 0 to 10 g) against the plantar surface of the hind paw of the mouse. […] The measurement was done before the OXPT administration and 3 h and 7 days afterward. The compounds were administrated to the animals with tactile allodynia observed as a statistically significant decrease in pain threshold. On the day of the experiment, each mouse was placed in an observation chamber with a wire mesh bottom and was allowed to habituate for 1 h. After the habituation period, the mouse pain threshold was tested three times alternately with at least 30 s gap between each measurement. The mean of these three consecutive measurements was taken as the baseline value. The mice with tactile allodynia were i.p. pretreated with the tested compound, and 30 min later, the animals were tested again according to the same procedure.[92]

mice [2] = assay: loperamide-induced antinociception (paw pressure, struggle response latency); format: in vivo, Female CD1 mice

N#Cc1ccc(-c2ccc(OCCCN3CCC(c4ccncc4)CC3)cc2)cc1 [Compound 12, 4′-(3-(4-(Pyridin-4-yl)piperidin-1-yl)propoxy)-[1,1′-biphenyl]-4-carbonitrile Oxalate]
pain threshold after single administration, early phase (mice [1]; 5 mg/kg i.p.): 88.6 % of the baseline | pain threshold after single administration, early phase (mice [1]; 10 mg/kg i.p.): 115.0 % of the baseline | pain threshold after single administration, late phase (mice [1]; 10 mg/kg i.p.): 99.8 % of the baseline | pain threshold after single administration, early phase (mice [1]; 15 mg/kg i.p.): 124.3 % of the baseline | pain threshold after single administration, late phase (mice [1]; 15 mg/kg i.p.): 123.7 % of the baseline | in vivo σ1 receptor functional profile (mice [2]; concluded from PRE-084 reversal): σ1 receptor antagonists | effect on loperamide-induced antinociception (mice [2]; i.pl. with loperamide 4 mg/kg s.c., injected paw): dose-dependently (12.5–25 μg) increased the antinociceptive effect of loperamide at the injected paw | effect alone on struggle response latency (mice [2]; i.pl., S1RA 100 μg, 12 25 μg, 450 g pressure): did not have any effect per se
